Read-outs that look alike come from different tables or passages of the source. Positions of bridges follow the written chain, without caps; N, C: chain ends. Non-standard residues stand in square brackets, D forms with d. Residues, ends and D or L forms follow the SMILES beside them. Phe(4-Me) = Cc1ccc(C[C@H](N)C(=O)O)cc1; NMeV = CN[C@H](C(=O)O)C(C)C

Holding throughout (assay): cell-based
Assay [1] concerns the target hNav1.7 (Homo sapiens, UniProt Q15858). The class given is cell-based. Conditions: IonWorks Quattro, read-out: IWQ Use Nav1.7.
Assay [2] addresses hNav1.3 (Homo sapiens, UniProt Q9NY46). Particulars: IonWorks Quattro, read-out: IWQ Use Nav1.3. In general terms: In patch-clamp work, channel activity is measured electrically.
Assay [3] addresses hNav1.5 (Homo sapiens, UniProt Q14524). Conditions: IonWorks Quattro, read-out: IWQ Use Nav1.5.
[4] abbreviates: use-dependent protocol, hNav1.7.
Where [5] appears, read: use-dependent protocol, hNav1.3.
Setting [6] is: use-dependent protocol, hNav1.5.
Setting [7] is: clamped to −110 mV, depolarized to −10 mV, 5 min after compound, n=2.

Sequence of hNav1.5 (Q14524 whole entry, looked up): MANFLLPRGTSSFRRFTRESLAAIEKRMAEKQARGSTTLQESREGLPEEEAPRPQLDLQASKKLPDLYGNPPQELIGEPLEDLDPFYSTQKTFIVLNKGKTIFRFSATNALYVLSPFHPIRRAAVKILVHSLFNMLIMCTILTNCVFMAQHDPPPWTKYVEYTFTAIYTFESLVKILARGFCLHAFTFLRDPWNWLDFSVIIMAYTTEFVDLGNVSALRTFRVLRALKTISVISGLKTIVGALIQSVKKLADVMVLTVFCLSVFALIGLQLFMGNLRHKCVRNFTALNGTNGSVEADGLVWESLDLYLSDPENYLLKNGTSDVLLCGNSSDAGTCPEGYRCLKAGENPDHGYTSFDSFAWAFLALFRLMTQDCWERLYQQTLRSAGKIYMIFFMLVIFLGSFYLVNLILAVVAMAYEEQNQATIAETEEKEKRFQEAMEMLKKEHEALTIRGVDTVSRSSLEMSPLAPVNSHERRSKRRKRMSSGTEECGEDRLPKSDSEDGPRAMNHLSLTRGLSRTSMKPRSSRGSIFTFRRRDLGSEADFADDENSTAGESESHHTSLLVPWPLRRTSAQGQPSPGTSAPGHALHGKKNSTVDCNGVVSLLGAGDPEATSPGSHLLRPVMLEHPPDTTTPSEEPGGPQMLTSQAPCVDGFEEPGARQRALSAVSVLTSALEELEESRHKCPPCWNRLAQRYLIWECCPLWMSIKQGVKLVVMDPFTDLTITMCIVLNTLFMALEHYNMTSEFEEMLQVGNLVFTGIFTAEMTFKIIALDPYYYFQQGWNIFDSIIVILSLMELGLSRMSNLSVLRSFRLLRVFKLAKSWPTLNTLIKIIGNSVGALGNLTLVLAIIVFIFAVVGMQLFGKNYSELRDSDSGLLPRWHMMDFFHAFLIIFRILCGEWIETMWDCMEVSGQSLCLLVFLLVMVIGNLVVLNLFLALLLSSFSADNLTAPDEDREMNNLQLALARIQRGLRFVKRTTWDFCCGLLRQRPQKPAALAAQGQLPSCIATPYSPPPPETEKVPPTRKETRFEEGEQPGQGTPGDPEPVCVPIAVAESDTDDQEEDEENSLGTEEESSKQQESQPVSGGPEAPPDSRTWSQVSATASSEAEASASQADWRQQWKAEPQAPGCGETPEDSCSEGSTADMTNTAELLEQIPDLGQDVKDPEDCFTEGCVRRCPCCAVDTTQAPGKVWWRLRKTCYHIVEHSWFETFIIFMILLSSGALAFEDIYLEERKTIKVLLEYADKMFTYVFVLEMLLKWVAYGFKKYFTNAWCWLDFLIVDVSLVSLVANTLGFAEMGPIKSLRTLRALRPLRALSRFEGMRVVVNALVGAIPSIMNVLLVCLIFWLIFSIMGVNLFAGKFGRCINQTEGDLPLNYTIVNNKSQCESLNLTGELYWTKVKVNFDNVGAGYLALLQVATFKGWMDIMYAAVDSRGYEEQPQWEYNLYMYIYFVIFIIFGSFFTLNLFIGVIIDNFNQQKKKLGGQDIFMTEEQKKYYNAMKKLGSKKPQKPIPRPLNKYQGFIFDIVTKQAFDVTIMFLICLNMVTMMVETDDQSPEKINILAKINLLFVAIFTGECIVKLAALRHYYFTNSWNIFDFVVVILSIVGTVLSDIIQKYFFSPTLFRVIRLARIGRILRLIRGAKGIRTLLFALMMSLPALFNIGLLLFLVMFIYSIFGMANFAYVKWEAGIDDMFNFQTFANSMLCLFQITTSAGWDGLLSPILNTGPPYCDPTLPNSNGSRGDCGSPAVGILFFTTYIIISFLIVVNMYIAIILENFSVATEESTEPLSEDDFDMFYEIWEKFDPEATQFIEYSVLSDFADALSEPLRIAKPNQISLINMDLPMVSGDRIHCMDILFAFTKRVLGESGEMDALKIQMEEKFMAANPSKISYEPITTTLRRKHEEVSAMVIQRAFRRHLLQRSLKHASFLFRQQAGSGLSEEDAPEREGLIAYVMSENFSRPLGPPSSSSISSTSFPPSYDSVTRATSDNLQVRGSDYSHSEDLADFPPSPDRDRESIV
Sequence of hNav1.3 (Q9NY46 whole entry, looked up): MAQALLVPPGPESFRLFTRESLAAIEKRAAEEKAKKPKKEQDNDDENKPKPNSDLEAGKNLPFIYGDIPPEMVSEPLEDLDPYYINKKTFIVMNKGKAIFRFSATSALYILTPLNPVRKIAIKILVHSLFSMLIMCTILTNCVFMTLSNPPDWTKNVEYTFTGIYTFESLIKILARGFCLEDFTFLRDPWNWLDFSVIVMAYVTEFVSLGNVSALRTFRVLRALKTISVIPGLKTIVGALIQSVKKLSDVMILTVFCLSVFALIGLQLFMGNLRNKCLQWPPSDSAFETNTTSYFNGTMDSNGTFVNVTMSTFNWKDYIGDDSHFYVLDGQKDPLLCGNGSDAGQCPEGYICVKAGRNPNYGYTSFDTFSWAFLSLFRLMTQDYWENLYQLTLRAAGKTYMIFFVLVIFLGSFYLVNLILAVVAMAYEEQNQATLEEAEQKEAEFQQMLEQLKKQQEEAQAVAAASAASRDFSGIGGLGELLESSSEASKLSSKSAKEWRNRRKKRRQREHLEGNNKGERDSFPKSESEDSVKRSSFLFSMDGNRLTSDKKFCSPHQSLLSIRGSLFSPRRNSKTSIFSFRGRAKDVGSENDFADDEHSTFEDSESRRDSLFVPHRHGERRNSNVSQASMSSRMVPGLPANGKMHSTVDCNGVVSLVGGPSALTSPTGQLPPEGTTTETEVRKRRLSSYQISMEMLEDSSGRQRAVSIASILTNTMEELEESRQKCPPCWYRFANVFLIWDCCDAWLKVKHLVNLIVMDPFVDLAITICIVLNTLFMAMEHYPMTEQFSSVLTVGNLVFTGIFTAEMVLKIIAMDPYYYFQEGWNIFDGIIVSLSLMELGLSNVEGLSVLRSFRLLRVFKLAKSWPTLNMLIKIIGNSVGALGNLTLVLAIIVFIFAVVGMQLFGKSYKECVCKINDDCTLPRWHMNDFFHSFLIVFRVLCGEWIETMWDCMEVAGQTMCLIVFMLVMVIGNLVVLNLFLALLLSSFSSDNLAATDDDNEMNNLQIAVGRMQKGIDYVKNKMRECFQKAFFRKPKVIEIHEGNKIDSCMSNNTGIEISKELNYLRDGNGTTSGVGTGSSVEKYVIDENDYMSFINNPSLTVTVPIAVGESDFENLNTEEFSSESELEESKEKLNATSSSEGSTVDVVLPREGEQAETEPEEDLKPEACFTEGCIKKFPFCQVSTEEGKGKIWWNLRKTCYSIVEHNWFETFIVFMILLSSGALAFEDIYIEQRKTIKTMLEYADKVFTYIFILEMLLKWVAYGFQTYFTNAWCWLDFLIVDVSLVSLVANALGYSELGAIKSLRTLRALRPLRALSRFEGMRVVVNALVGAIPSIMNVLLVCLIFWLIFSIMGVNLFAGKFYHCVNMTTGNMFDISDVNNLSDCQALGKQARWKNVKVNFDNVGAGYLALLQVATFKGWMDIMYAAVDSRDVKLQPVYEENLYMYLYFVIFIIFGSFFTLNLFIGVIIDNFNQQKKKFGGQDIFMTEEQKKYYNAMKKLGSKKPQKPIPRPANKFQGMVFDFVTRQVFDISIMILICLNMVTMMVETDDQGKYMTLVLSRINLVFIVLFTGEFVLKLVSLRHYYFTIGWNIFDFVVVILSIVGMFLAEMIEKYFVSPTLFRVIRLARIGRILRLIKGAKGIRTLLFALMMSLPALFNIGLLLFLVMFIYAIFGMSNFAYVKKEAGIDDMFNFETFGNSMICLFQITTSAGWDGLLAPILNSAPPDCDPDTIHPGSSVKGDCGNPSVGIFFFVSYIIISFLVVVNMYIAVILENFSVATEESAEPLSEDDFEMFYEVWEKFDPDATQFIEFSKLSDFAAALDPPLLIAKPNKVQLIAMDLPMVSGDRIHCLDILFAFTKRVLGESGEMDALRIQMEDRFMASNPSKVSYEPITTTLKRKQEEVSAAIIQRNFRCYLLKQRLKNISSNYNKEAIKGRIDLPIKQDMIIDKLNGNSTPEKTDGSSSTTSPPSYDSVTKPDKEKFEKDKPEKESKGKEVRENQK

For `CC[C@H](C)[C@@H]1NC(=O)[C@@H]2CSSC[C@@H]3NC(=O)[C@H](C(C)C)NC(=O)[C@H](CC(C)C)NC(=O)[C@H](CC(N)=O)NC(=O)[C@@H]4CCCN4C(=O)[C@H](CCCNC(=N)N)NC(=O)[C@H](CSSC[C@H](NC(=O)[C@@H](N)CC(=O)O)C(=O)N[C@@H](CC(C)C)C(=O)NCC(=O)N(C)[C@@H](C(C)C)C(=O)N[C@@H](Cc4ccccc4)C(=O)N[C@@H](CCCNC(=N)N)C(=O)N[C@@H](CCCCN)C(=O)N2)NC(=O)[C@H](CSSC[C@@H](C(=O)N[C@@H](CCCCN)C(=O)N[C@@H](Cc2ccc(O)cc2)C(=O)N[C@H](C(=O)N[C@@H](Cc2ccccc2)C(N)=O)C(C)C)NC(=O)[C@H](Cc2c[nH]c4ccccc24)NC(=O)[C@H](CCCCN)NC(=O)[C@H](Cc2c[nH]cn2)NC(=O)[C@H]([C@@H](C)O)NC(=O)[C@H](CCCNC(=N)N)NC(=O)[C@H](CO)NC3=O)NC(=O)[C@H](CCCCN)NC(=O)[C@H](CC(=O)O)NC(=O)[C@H](CC(N)=O)NC(=O)[C@H](CC(=O)O)NC(=O)[C@@H]2CCCN2C1=O` [compound 627] (H-DCLG[NMeV]FRKCIPDNDKCCRPNLVCSRTHKWCKYVF-NH2; disulfide 2-17, 9-23, 16-30), the values for the IC50 in assay [1] (setting [4]), in assay [2] (setting [5]) and in assay [3] (setting [6]) were 190 nM, 250 nM and 6000 nM, respectively.

Consider `CC[C@H](C)[C@@H]1NC(=O)[C@@H]2CSSC[C@@H]3NC(=O)[C@H](C(C)C)NC(=O)[C@H](CC(C)C)NC(=O)[C@H](CC(N)=O)NC(=O)[C@@H]4CCCN4C(=O)[C@H](CCCNC(=N)N)NC(=O)[C@H](CSSC[C@H](NC(=O)[C@@H](N)CC(=O)O)C(=O)N[C@@H](CC(C)C)C(=O)NCC(=O)N[C@@H](Cc4ccc(C)cc4)C(=O)N[C@@H](Cc4ccccc4)C(=O)N[C@@H](CCCNC(=N)N)C(=O)N[C@@H](CCCCN)C(=O)N2)NC(=O)[C@H](CSSC[C@@H](C(=O)N[C@@H](CCCCN)C(=O)N[C@@H](Cc2ccc(O)cc2)C(=O)N[C@H](C(=O)N[C@@H](Cc2ccccc2)C(N)=O)C(C)C)NC(=O)[C@H](Cc2c[nH]c4ccccc24)NC(=O)[C@H](CCCCN)NC(=O)[C@H](Cc2c[nH]cn2)NC(=O)[C@H]([C@@H](C)O)NC(=O)[C@H](CCCNC(=N)N)NC(=O)[C@H](CO)NC3=O)NC(=O)[C@H](CCCCN)NC(=O)[C@H](CC(=O)O)NC(=O)[C@H](CC(N)=O)NC(=O)[C@H](CC(=O)O)NC(=O)[C@@H]2CCCN2C1=O` [compound 625] (H-DCLG[Phe(4-Me)]FRKCIPDNDKCCRPNLVCSRTHKWCKYVF-NH2; disulfide 2-17, 9-23, 16-30), for which the IC50 in assay [1] (setting [4]) was 63 nM; in assay [2] (setting [5]) it was 51 nM; in assay [3] (setting [6]), 6500 nM.

Take `CCCCCCCC[C@@H]1NC(=O)CNC(=O)[C@H](CC(C)C)NC(=O)[C@@H](NC(=O)[C@@H](N)CC(=O)O)CSSC[C@@H]2NC(=O)[C@@H]3CSSC[C@@H](C(=O)N[C@@H](CCCCN)C(=O)N[C@@H](Cc4ccc(O)cc4)C(=O)N[C@H](C(=O)N[C@@H](Cc4ccccc4)C(N)=O)C(C)C)NC(=O)[C@H](Cc4c[nH]c5ccccc45)NC(=O)[C@H](CCCCN)NC(=O)[C@H](Cc4c[nH]cn4)NC(=O)[C@H]([C@@H](C)O)NC(=O)[C@H](CCCNC(=N)N)NC(=O)[C@H](CO)NC(=O)[C@H](CSSC[C@H](NC(=O)[C@H](CCCCN)NC(=O)[C@H](CCCNC(=N)N)NC(=O)[C@H](CC(C)C)NC1=O)C(=O)N[C@@H]([C@@H](C)CC)C(=O)N1CCC[C@H]1C(=O)N[C@@H](CC(=O)O)C(=O)N[C@@H](CC(N)=O)C(=O)N[C@@H](CC(=O)O)C(=O)N[C@@H](CCCCN)C(=O)N3)NC(=O)[C@H](C(C)C)NC(=O)[C@H](CC(C)C)NC(=O)[C@H](CC(N)=O)NC(=O)[C@@H]1CCCN1C(=O)[C@H](CCCNC(=N)N)NC2=O` [compound 639]: the IC50 in assay [1] (setting [4]) worked out at 15 nM; in assay [2] (setting [5]), 33 nM; in assay [3] (setting [6]), 1700 nM.

For `CC[C@H](C)[C@@H]1NC(=O)[C@@H]2CSSC[C@@H]3NC(=O)[C@H](C(C)C)NC(=O)[C@H](CC(C)C)NC(=O)[C@H](CC(N)=O)NC(=O)[C@@H]4CCCN4C(=O)[C@H](CCCNC(=N)N)NC(=O)[C@H](CSSC[C@H](NC(=O)[C@@H](N)CC(=O)O)C(=O)N[C@@H](CC(C)C)C(=O)NCC(=O)N[C@@H](Cc4ccccc4)C(=O)N[C@@H](CCSC)C(=O)N[C@@H](CCCNC(=N)N)C(=O)N[C@@H](CCCCN)C(=O)N2)NC(=O)[C@H](CSSC[C@@H](C(=O)N[C@@H](CCCCN)C(=O)N[C@@H](Cc2ccc(O)cc2)C(=O)N[C@@H](CO)C(=O)N[C@@H](Cc2ccccc2)C(N)=O)NC(=O)[C@H](Cc2c[nH]c4ccccc24)NC(=O)[C@H](CCCCN)NC(=O)[C@H](Cc2c[nH]cn2)NC(=O)[C@H]([C@@H](C)O)NC(=O)[C@H](CCCNC(=N)N)NC(=O)[C@H](CO)NC3=O)NC(=O)[C@H](CCCCN)NC(=O)[C@H](CC(=O)O)NC(=O)[C@H](CC(N)=O)NC(=O)[C@H](CC(=O)O)NC(=O)[C@@H]2CCCN2C1=O` [compound 397] (H-DCLGFMRKCIPDNDKCCRPNLVCSRTHKWCKYSF-NH2; disulfide 2-17, 9-23, 16-30), the IC50 in assay [1] (Table 26, use, […]) amounted to 40 nM; in assay [2] (Table 26, use, […]), 60 nM; in assay [3] (Table 26, use, […]), 6280 nM.

As for `CC[C@H](C)[C@@H]1NC(=O)[C@@H]2CSSC[C@@H]3NC(=O)[C@H](C(C)C)NC(=O)[C@H](CC(C)C)NC(=O)[C@H](CC(N)=O)NC(=O)[C@@H]4CCCN4C(=O)[C@H](CCCNC(=N)N)NC(=O)[C@H](CSSC[C@H](NC(=O)[C@@H](N)CC(=O)O)C(=O)N[C@@H](CC(C)C)C(=O)NCC(=O)N[C@@H](Cc4ccc(C(C)(C)C)cc4)C(=O)N[C@@H](CC(C)C)C(=O)N[C@@H](CCCNC(=N)N)C(=O)N[C@@H](CCCCN)C(=O)N2)NC(=O)[C@H](CSSC[C@@H](C(=O)N[C@@H](CCCCN)C(=O)N[C@@H](Cc2ccc(O)cc2)C(=O)N[C@H](C(=O)N[C@@H](Cc2ccccc2)C(N)=O)C(C)C)NC(=O)[C@H](Cc2c[nH]c4ccccc24)NC(=O)[C@H](CCCCN)NC(=O)[C@H](Cc2c[nH]cn2)NC(=O)[C@H]([C@@H](C)O)NC(=O)[C@H](CCCNC(=N)N)NC(=O)[C@H](CO)NC3=O)NC(=O)[C@H](CCCCN)NC(=O)[C@H](CC(=O)O)NC(=O)[C@H](CC(N)=O)NC(=O)[C@H](CC(=O)O)NC(=O)[C@@H]2CCCN2C1=O` [compound 671], the IC50 in assay [1] (setting [4]) is 140 nM; in assay [2] (setting [5]) it was 50 nM; in assay [3] (setting [6]) it was above 5000 nM.

Consider `CC[C@H](C)[C@@H]1NC(=O)[C@@H]2CSSC[C@@H]3NC(=O)[C@H](C(C)C)NC(=O)[C@H](CC(C)C)NC(=O)[C@H](CC(N)=O)NC(=O)[C@@H]4CCCN4C(=O)[C@H](CCCNC(=N)N)NC(=O)[C@H](CSSC[C@H](NC(=O)[C@@H](N)CC(=O)O)C(=O)N[C@@H](CC(C)C)C(=O)NCC(=O)N[C@@H](Cc4ccccc4)C(=O)N[C@@H](CCSC)C(=O)N[C@@H](CCCNC(=N)N)C(=O)N[C@@H](CCCCN)C(=O)N2)NC(=O)[C@H](CSSC[C@@H](C(=O)N[C@@H](CCCCN)C(=O)N[C@@H](Cc2ccc(O)cc2)C(=O)N[C@@H](CCC(N)=O)C(=O)N[C@@H](Cc2ccccc2)C(N)=O)NC(=O)[C@H](Cc2c[nH]c4ccccc24)NC(=O)[C@H](CCCCN)NC(=O)[C@H](Cc2c[nH]cn2)NC(=O)[C@H]([C@@H](C)O)NC(=O)[C@H](CCCNC(=N)N)NC(=O)[C@H](CO)NC3=O)NC(=O)[C@H](CCCCN)NC(=O)[C@H](CC(=O)O)NC(=O)[C@H](CC(N)=O)NC(=O)[C@H](CC(=O)O)NC(=O)[C@@H]2CCCN2C1=O` [compound 95] (H-DCLGFMRKCIPDNDKCCRPNLVCSRTHKWCKYQF-NH2; disulfide 2-17, 9-23, 16-30), for which the IC50 in assay [1] (Table 26, use, […]) was determined as 120 nM; in assay [2] (Table 26, use, […]) it was 110 nM; in assay [3] (Table 26, use, […]), 10600 nM.

For `CC[C@H](C)[C@@H]1NC(=O)[C@@H]2CSSC[C@@H]3NC(=O)[C@H](C(C)C)NC(=O)[C@H](CC(C)C)NC(=O)[C@H](CC(N)=O)NC(=O)[C@@H]4CCCN4C(=O)[C@H](CCCNC(=N)N)NC(=O)[C@H](CSSC[C@H](NC(=O)[C@@H](N)CC(=O)O)C(=O)N[C@@H](CC(C)C)C(=O)NCC(=O)N[C@@H]([C@@H](C)O)C(=O)N[C@@H](CCSC)C(=O)N[C@@H](CCCNC(=N)N)C(=O)N[C@@H](CCCCN)C(=O)N2)NC(=O)[C@H](CSSC[C@@H](C(=O)N[C@@H](CCCCN)C(=O)N[C@@H](Cc2ccc(O)cc2)C(=O)N[C@H](C(=O)N[C@@H](Cc2ccccc2)C(N)=O)C(C)C)NC(=O)[C@H](Cc2c[nH]c4ccccc24)NC(=O)[C@H](CCCCN)NC(=O)[C@H](Cc2c[nH]cn2)NC(=O)[C@H]([C@@H](C)O)NC(=O)[C@H](CCCNC(=N)N)NC(=O)[C@H](CO)NC3=O)NC(=O)[C@H](CCCCN)NC(=O)[C@H](CC(=O)O)NC(=O)[C@H](CC(N)=O)NC(=O)[C@H](CC(=O)O)NC(=O)[C@@H]2CCCN2C1=O` [SEQ ID NO: 270] (H-DCLGTMRKCIPDNDKCCRPNLVCSRTHKWCKYVF-NH2; disulfide 2-17, 9-23, 16-30), the IC50 in assay [1] (setting [7]) turned out to be 1220 nM; in assay [2] (setting [7]), 2190 nM; in assay [3] (setting [7]) it was 15200 nM.

For the origin of these results see US9340590B2 (priority 2011, dated 2016).
